Results on 2 molecules are retold here after article PMC8556396, “Statin-mediated disruption of Rho GTPase prenylation and activity inhibits respiratory syncytial virus infection” (Communications Biology, 2021).

Where “and” joins values, the source holds several entries; their conditions need not be identical. Identical values can stand only once.

Data set [1] relates to RSV. Set-up: method as in PMID 11257039. To be noted: daily, 50 mg/kg, oral; cited from earlier work.
Data set [2] relates to RSV A2. Description: Immunofluorescence staining and microscopy of RSV F and N.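 As to RSV F intensity (a.u.): fluorescence normalized to total nuclear count.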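 As to RSV N intensity (a.u.): fluorescence normalized to total nuclear count.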 To be noted: for RSV F intensity (a.u.): Fig 5D; for RSV N intensity (a.u.): Fig 5E.
Experimental: HEp-2 cells were seeded to No. 1 glass coverslips (1014355117NR1, Thermo Fisher Scientific) for high-resolution confocal microscopy, or black, flat, microclear-bottom 96-well plates (655096, Greiner Bio-One) for high-throughput quantification of RSV F and N immunofluorescence. Cells were infected with RSV A2 (MOI 0.5). At 48 h p.i., cells were fixed in 4% paraformaldehyde for 30 min and permeabilized with 0.3% Triton X-100 for 10 min at room temperature. F and N proteins were probed using mouse anti-RSV F (RSV3216) and mouse anti-RSV N (RSV3132) mAbs (Bio-Rad Antibodies) diluted 1:500 in PBS + 0.1% Tween-20 (PBST), or mouse anti-RSV F mAb Alexa Fluor 488 conjugate (Millipore Sigma, 133/1H) diluted 1:200 in PBST over a 1-h incubation at room temperature. This was followed by detection with secondary anti-mouse Fab fragments conjugated to Alexa Fluor 488 (4408) or 647 (4410) (Cell Signaling Technology) diluted 1:1000 in PBST over a 1-h incubation at room temperature. Fluorescent images were acquired using either the Cellomics ArrayScan VTI HCS Reader at ×10 magnification (for quantification) or Olympus IX81 Spinning Disk Confocal microscope at ×60 magnification with oil immersion (for high-resolution images). F and N immunofluorescence was quantified in CellProfiler and normalized to total nuclear count.
The conditions of data set [3]: in vivo; cited from earlier work.
Where [4] appears, read: FTI-276 0.5 uM, perillyl alcohol 0.5 mM.
[5] abbreviates: FTI-276 1 uM, perillyl alcohol 1 mM.

`CC[C@H](C)C(=O)O[C@H]1C[C@@H](C)C=C2C=C[C@H](C)[C@H](CC[C@@H]3C[C@@H](O)CC(=O)O3)[C@H]21` [Lovastatin, lovastatin]: the “RSV infection in mice” value in data set [1] is given as “inhibition of RSV in mice”.

Consider `C=C(C)[C@@H]1CC=C(CO)CC1` [Perillyl alcohol, perillyl alcohol], for which the “RSV F intensity (a.u.)” value was 4.838 a.u. and 4.168 a.u. and 3.383 a.u in data set [2] (setting [4]); 5.114 a.u. and 3.157 a.u in data set [2] (setting [5]); 0.705 a.u. and 0.8175 a.u. and 0.8487 a.u in data set [2] (FTI-276 5 uM, perillyl alcohol 5 mM). Also, the “RSV N intensity (a.u.)” value in data set [2] (setting [4]) is 6.098 a.u. and 3.977 a.u. and 5.388 a.u. and 3.797 a.u; in data set [2] (setting [5]), 3.037 a.u. and 4.82 a.u. and 2.725 a.u. and 4.829 a.u. Further, in data set [2] (HEp-2, F and N immunofluorescence), the “effect of prenyltransferase inhibitor on RSV A2 infection” value is “dose-dependently reduced RSV A2 infection”. Further, in data set [2] (relative to DMSO, 48 h p.i., PA 5.0 mM, EHT 1864 20.0 µM), the “reduction of N protein intensity” value amounted to 82.7 ± 3.3%. For the same molecule, the “tolerability” value in data set [3] is recorded as “well-tolerated in humans”.
